Measurements reported in PubChem BioAssay (NCI).
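Method: 48-hour compound exposure of cells in 96-well plates, five concentrations, linear interpolation of endpoints. GI50: concentration for 50% inhibition of growth. TGI is the concentration that stops growth completely.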

Legend:
Assay in all cases: growth of human tumour cells (NCI), 48 h
M14 melanoma = system: M14 melanoma
HT29 colon = system: HT29 colon
SR leukemia = system: SR leukemia
NCI-H23 lung = system: NCI-H23 lung
KM12 colon = system: KM12 colon
A549 NSCLC = system: A549 NSCLC
HCT-15 colon = system: HCT-15 colon
ACHN renal = system: ACHN renal
MALME-3M melanoma = system: MALME-3M melanoma
RPMI-8226 leukemia = system: RPMI-8226 leukemia

SMILES | TGI (M14 melanoma) [µM] | TGI (HT29 colon) [µM] | TGI (SR leukemia) [µM] | TGI (NCI-H23 lung) [µM] | TGI (KM12 colon) [µM] | TGI (A549 NSCLC) [µM] | TGI (HCT-15 colon) [µM] | TGI (ACHN renal) [µM] | TGI (MALME-3M melanoma) [µM] | TGI (RPMI-8226 leukemia) [µM] | GI50 (M14 melanoma) [µM] | GI50 (HT29 colon) [µM] | GI50 (SR leukemia) [µM] | GI50 (MALME-3M melanoma) [µM] | GI50 (NCI-H23 lung) [µM] | GI50 (KM12 colon) [µM] | GI50 (A549 NSCLC) [µM] | GI50 (HCT-15 colon) [µM] | GI50 (RPMI-8226 leukemia) [µM] | GI50 (ACHN renal) [µM]
Cc1ccc(S(=O)(=O)NCCCSCCN)cc1 | > 100 | > 100 | > 100 | > 100 | > 100 | > 100 | > 100 | > 100 | – | – | – | – | – | – | – | – | – | – | – | –
O=C(Nc1ccc(C(F)(F)F)cc1[N+](=O)[O-])C(=O)Nn1c(=S)[nH]c2ccccc2c1=O | – | > 100 | > 100 | > 100 | > 100 | > 100 | > 100 | > 100 | > 100 | > 100 | – | – | – | – | – | – | – | – | – | –
CC(C)N(CCNc1nc(C(Cl)(Cl)Cl)nc2cc(Cl)ccc12)C(C)C | 3.19 | 1.85 | 3.11 | 3.47 | 2.83 | 3.15 | 2.48 | 2.66 | 3.98 | 3.18 | 1.58 | 0.523 | 0.926 | 1.83 | 1.61 | 1.32 | 1.67 | 1.12 | 1.19 | 1.29
OCC1NC(CO)C(O)C1O (stereo not given) | > 100 | > 100 | > 100 | > 100 | > 100 | – | > 100 | – | > 100 | > 100 | – | – | – | – | – | – | – | – | – | –
O=S1(=O)C[C@H](NCc2ccccc2)[C@H](NCc2ccccc2)C1 | > 100 | > 100 | > 100 | > 100 | > 100 | > 100 | – | > 100 | > 100 | 86.7 | – | – | – | – | – | – | – | – | – | –
COc1ccc(CCn2ccc(C)n2)c(OC)c1 | > 100 | > 100 | – | > 100 | > 100 | > 100 | > 100 | > 100 | > 100 | – | – | – | – | – | – | – | – | – | – | –
CC=C/C=C/[C@@H]1O[C@](O)([C@H](CC)C(=O)NC/C=C/C=C(\C)[C@@H](OC)[C@@H](C)[C@@H]2O[C@H](/C=C/C=C/C=C(\C)C(=O)c3c(O)cc[nH]c3=O)[C@H](O)[C@@H]2O)[C@H](O)[C@H](O)C1(C)C | > 100 | > 100 | > 100 | > 100 | > 100 | > 100 | > 100 | > 100 | > 100 | > 100 | – | – | – | – | – | – | – | – | – | –
CC(=O)OC/C=C\Cn1ncc(=O)[nH]c1=O | 46.8 | 29.9 | – | 28.9 | 31.3 | 58.9 | 37.5 | 43.8 | 31.5 | 31.4 | – | – | – | – | – | – | – | – | – | –
Fc1ccc(C2CC(c3cccc(Nc4ccncc4)c3)=NN2c2ccccc2)cc1 (stereo not given) | 3.71 | 5.09 | 5.67 | 3.33 | 3.07 | – | 3.49 | 3.11 | 3.16 | – | 1.87 | 2.13 | 2.17 | 1.6 | 1.75 | 1.63 | – | 1.68 | – | 1.71
CCOP(=O)(OCC)C(Cc1c[nH]c2ccccc12)C(=O)O (stereo not given) | > 100 | > 100 | > 100 | > 100 | – | > 100 | > 100 | > 100 | – | > 100 | – | – | – | – | – | – | – | – | – | –
